Experimental data: US20160287696A1, “PAN POLLEN IMMUNOGENS AND METHODS AND USES FOR IMMUNE RESPONSE MODULATION” (LA JOLLA INSTITUTE FOR ALLERGY AND IMMUNOLOGY, priority 2013, published 2016)

Test system: cultured PBMCs of the allergic donors
Experiment: ELISPOT of IL-5 or IFNg production by cultured PBMCs of TG allergic donors in response to peptide
Assay type: cell-based, human
Conditions: for # Th+: Table 7, peptides per NTGA recognized by T cells of grass allergic donors (n=20); for No of PG+ & th+ peptides per NTGA / No of PP & Th+ peptides per NTGA: Table 6; for No of PG+ & th+ peptides per NTGA: PG+ peptides recognized by T cells of grass allergic donors (n=20); for No of PP & Th+ peptides per NTGA: PP peptides recognized by T cells of grass allergic donors (n=20); for NTGA's containing at least one T cell epitope, Th+ (Col 2): NTGA number given = criterion met, TG allergic donors n=20
From the text: Table 1 indicates for each of the 397 PG+ peptides in which non-grass pollen species a matching peptide with either less than 3, less than 2 or zero mismatches are found. The number of TG grass allergic donors (n=20) with an in vitro T cell response to the TG peptide sequence is also shown.
A set of 93 proteins from Timothy grass (TG) pollen and the assembly of 822 peptides (15 mers) predicted to promiscuously bind HLA class II molecules shown in Table 9 and the immune reactivity in allergic donors have been reported in PCT application WO 2013/119863. […] Immune reactivity was determined by the production of IL-5 or IFNg from cultured PBMCs of the allergic donors in response to stimulation with a peptide and IL-5 and IFNg were measured by ELISPOT as described in Oseroff C et al, 2010.
In short, T cell immune reactivity was determined using PBMCs isolated from study participants and stored in liquid nitrogen until further use. For experimental testing, PBMCs were thawed and expanded in vitro with TG pollen extract (50 μg/mL) or the peptide pool ([…]). The TG extract and peptide pools had each been previously titrated to determine optimal stimulation concentrations.
Cytokine production by cultured PBMCs in response to antigen stimulation was measured by ELISPOT. Cells (1×10^5 cells/well) were plated and incubated with peptide (10 μg/mL), the peptide pool (5 μg/mL), or the TG extract (50 μg/mL). Phytohaemagglutinin (10 μg/mL) and medium alone were used as positive and negative controls, respectively. Samples were considered to produce a cytokine if 100 spot-forming cells (SFCs)/10^6 PBMCs were detected, with P .05 and a stimulation index of 2 or more. Criteria for individual peptides were the same except that a minimum of 20 SFCs were required for a sample to be counted as positive.
Table 3 lists the 397 PG+ peptides and indicates for each non-grass pollen species whether a matching peptide with either less than 3, less than 2 or zero mismatches could be detected. The immune reactivity of the TG peptide was assessed as the number of TG grass allergic donors (n=20) having in vitro T cell response against the TG peptide.

41 (LVSVEDIVLQHWATY) [compound 41]
# Th+: 0

31 (QGFIWGINSFDQWGV) [compound 31]
No of PG+ & th+ peptides per NTGA: 0
No of PP & Th+ peptides per NTGA: 0
# Th+: 0

58 (GKLDLLLSQGKEYVF) [compound 58]
No of PG+ & th+ peptides per NTGA: 0
No of PP & Th+ peptides per NTGA: 0
# Th+: 0

93 (LGEAPYKFKSALEAV) [compound 93]
# Th+: 0

60 (SDNLGAIVDMKILNH) [compound 60]
No of PG+ & th+ peptides per NTGA: 0
No of PP & Th+ peptides per NTGA: 0
# Th+: 0

70 (RFLPVKATSDLQLVQ) [compound 70]
# Th+: 0

71 (TSDLQLVQSDLYTLV) [compound 71]
# Th+: 0

25 (VLLGLLSVWNVSFLG) [compound 25]
# Th+: 0

40 (GIWAVLAWLSIIAYK) [compound 40]
NTGA's containing at least one T cell epitope, Th+ (Col 2): 40
No of PG+ & th+ peptides per NTGA: 2
No of PP & Th+ peptides per NTGA: 2
# Th+: 0

81 (NSIASIFAWTRGLAH) [compound 81]
# Th+: 0

75 (GTIRNIINGTVFREP) [compound 75]
# Th+: 0

79 (WYEHRLIDDMVAYAL) [compound 79]
NTGA's containing at least one T cell epitope, Th+ (Col 2): 79
No of PG+ & th+ peptides per NTGA: 1
No of PP & Th+ peptides per NTGA: 0
# Th+: 0

92 (SVGFVETLENDLAQL) [compound 92]
# Th+: 0

28 (NGQHSFYQLIHQGRV) [compound 28]
No of PG+ & th+ peptides per NTGA: 0
No of PP & Th+ peptides per NTGA: 0
# Th+: 0

16 (QTELDNFMVHQLDGT) [compound 16]
NTGA's containing at least one T cell epitope, Th+ (Col 2): 16
No of PG+ & th+ peptides per NTGA: 2
No of PP & Th+ peptides per NTGA: 2
# Th+: 0

48 (ILSYADFYQLAGVVA) [compound 48]
No of PG+ & th+ peptides per NTGA: 0
No of PP & Th+ peptides per NTGA: 0
# Th+: 0

88 (IKLKNMLFHTARINC) [compound 88]
# Th+: 0

12 (RAAVPSGASTGVYEA) [compound 12]
# Th+: 0

82 (DNARLLDFTQKLEDA) [compound 82]
# Th+: 0

14 (LGAAAVYAGLKFRAP) [compound 14]
# Th+: 0

74 (GRFKSIPSIVELDSL) [compound 74]
# Th+: 0

67 (VKVLQLETAAGAAIR) [compound 67]
# Th+: 0

5 (KLAMQEFMILPTGAS) [compound 5]
No of PG+ & th+ peptides per NTGA: 0
No of PP & Th+ peptides per NTGA: 0
# Th+: 0

44 (GATIRIYIEQYEKDS) [compound 44]
No of PG+ & th+ peptides per NTGA: 0
No of PP & Th+ peptides per NTGA: 0
# Th+: 0

21 (VVSKTFTTAETMLNA) [compound 21]
No of PG+ & th+ peptides per NTGA: 0
No of PP & Th+ peptides per NTGA: 0
# Th+: 0

54 (FLDLIVLQIESLNKK) [compound 54]
NTGA's containing at least one T cell epitope, Th+ (Col 2): 54

55 (LNKKYGSNVPLLLMN) [compound 55]
No of PG+ & th+ peptides per NTGA: 0
No of PP & Th+ peptides per NTGA: 0
# Th+: 0

35 (RNMVLGKRFFVTPSD) [compound 35]
NTGA's containing at least one T cell epitope, Th+ (Col 2): 35
No of PG+ & th+ peptides per NTGA: 2
No of PP & Th+ peptides per NTGA: 1
# Th+: 0

78 (GRFKDIFQAVYEADW) [compound 78]
# Th+: 0

36 (KRFFVTPSDSVAIIA) [compound 36]
No of PG+ & th+ peptides per NTGA: 0
No of PP & Th+ peptides per NTGA: 0
# Th+: 0

61 (ISYEGRVQLLEIAQV) [compound 61]
# Th+: 0

85 (RVLSCDFKPTRPFRI) [compound 85]
# Th+: 0

57 (LKIVEKYANSSIDIH) [compound 57]
No of PG+ & th+ peptides per NTGA: 0
No of PP & Th+ peptides per NTGA: 0
# Th+: 0

80 (VQSDFLAQGFGSLGL) [compound 80]
# Th+: 0

46 (LDIAVRLLEPIKEQV) [compound 46]
# Th+: 1

38 (AVQSIPYFASGLKGV) [compound 38]
No of PG+ & th+ peptides per NTGA: 0
No of PP & Th+ peptides per NTGA: 0
# Th+: 0

72 (VQSDLYTLVDGFVTR) [compound 72]
NTGA's containing at least one T cell epitope, Th+ (Col 2): 72
No of PG+ & th+ peptides per NTGA: 2
No of PP & Th+ peptides per NTGA: 1
# Th+: 0

37 (SDSVAIIAANAVQSI) [compound 37]
# Th+: 0

84 (KSLVRAFMWDSGSTV) [compound 84]
NTGA's containing at least one T cell epitope, Th+ (Col 2): 84
No of PG+ & th+ peptides per NTGA: 4
No of PP & Th+ peptides per NTGA: 3
# Th+: 0

50 (NPLIFDNSYFTELLT) [compound 50]
No of PG+ & th+ peptides per NTGA: 0
No of PP & Th+ peptides per NTGA: 0
# Th+: 0

33 (DDGKVYLEMSYYFEI) [compound 33]
No of PG+ & th+ peptides per NTGA: 0
No of PP & Th+ peptides per NTGA: 0
# Th+: 0

18 (ENRSVLHVALRAPRD) [compound 18]
No of PG+ & th+ peptides per NTGA: 0
No of PP & Th+ peptides per NTGA: 0
# Th+: 0

23 (RYSVCSAVGVLPLSL) [compound 23]
# Th+: 0

63 (FKSIEKFKIFNTNNL) [compound 63]
# Th+: 0

15 (GASTGVYEALELRDG) [compound 15]
# Th+: 0

66 (IKRLVEADALKMEII) [compound 66]
# Th+: 0

17 (VDNVNSIIGPALIGK) [compound 17]
# Th+: 0

45 (DALSPLVDVALKLSK) [compound 45]
# Th+: 0

42 (HQGIRYLFGDGSRLV) [compound 42]
NTGA's containing at least one T cell epitope, Th+ (Col 2): 42
No of PG+ & th+ peptides per NTGA: 1
No of PP & Th+ peptides per NTGA: 1
# Th+: 0

69 (GINVPRSRFLPVKAT) [compound 69]
No of PG+ & th+ peptides per NTGA: 0
No of PP & Th+ peptides per NTGA: 0
# Th+: 0

68 (AAIRFFDHAIGINVP) [compound 68]
# Th+: 0
